Results: patent US20210330611A1, “THERAPY FOR NEUROLOGICAL DISEASES/DISORDERS” (priority 2020, published 2021)
pIC50: −log10 of the molar value. Structures can show the parent of a compound that is named as a salt. Where two headings read alike, the source gives them in different places.

Assays:
[1] = tested on: primary rat microglia; settings: rat
[2] = tested on: LPS-induced microglia activation; experiment: Image-based assay of LPS-induced microglia activation (HTS and dose response); type: cell-based, rat; settings: Rattus norvegicus, Microglia; for inhibition at 10 µM: read-out: LPS % inhibition
[3] = in vitro; settings: rat, Cell Toxicity IC50 (uM) [cFib assay]
[4] = tested on: fibrin-induced microglia activation; experiment: Image-based assay of fibrin-induced microglia activation (HTS and dose response); type: cell-based, rat; settings: Rattus norvegicus, Microglia; for inhibition at 10 µM: read-out: Fibrin % inhibition
[5] = tested on: primary rat microglia; settings: rat; remark: listed apart in the source
[6] = in vitro; settings: rat
[7] = tested on: fibrin- and LPS-induced microglia activation; experiment: cells; type: cell-based, rat; settings: for inhibition at 10 µM: Rattus norvegicus
[8] = 48 h, Table 1, dose response 0.001-20 μM, triplicates, primary rat microglia, 48 h, read-out: LPS IC50
[9] = 48 h, primary microglia HTS, LPS stimulation, increased cell size (>800 μm^2) as marker of activation
[10] = LPS-induced microglia activation, dose response, read-out: LPS IC50 (uM) (Suppl. Table 7)
[11] = dose response, LPS-induced microglia activation, read-out: LPS IC50
[12] = 48 h, Table 1, dose response 0.001-20 μM, triplicates, primary rat microglia, 48 h, read-out: Fibrin IC50
[13] = dose response, fibrin-induced microglia activation, read-out: Fibrin IC50
[14] = fibrin-induced microglia activation, dose response, read-out: Fibrin IC50 (uM) (Suppl. Table 7)
[15] = primary microglia HTS, fibrin stimulation, increased cell size (>800 μm^2) as marker of activation
[16] = HTS of 1907 compounds, quadrant by fibrin and LPS inhibition
[17] = Microglia, HTS hit classification, read-out: Hit
[18] = hit classification in microglia HTS, read-out: Cherry-picked Hit (Suppl. Table 7)
[19] = quadrant by fibrin and LPS inhibition in HTS of 1907 compounds
[20] = read-out: LPS IC50 (uM) (Suppl. Table 7)
[21] = read-out: Fibrin IC50 (uM) (Suppl. Table 7)
[22] = Microglia, read-out: Cherry-picked Hit (Suppl. Table 7)
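For Fibrin % cell toxicity in this document: share of dead cells sized under 150 µm2 at 10 µM in fibrin-stimulated microglia HTS.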

For `CO[C@H]1C[C@@H]2CC[C@@H](C)[C@@](O)(O2)C(=O)C(=O)N2CCCC[C@H]2C(=O)O[C@H]([C@H](C)C[C@@H]2CC[C@@H](O)[C@H](OC)C2)CC(=O)[C@H](C)/C=C(\C)[C@@H](O)[C@@H](OC)C(=O)[C@H](C)C[C@H](C)/C=C/C=C/C=C/1C` [Rapamycin, reference compound], the “Fibrin % cell toxicity” value [1] was 3%, the pIC50 [2, 8] was over 9.00 and the inhibition at 10 µM [2, 9] was 53%. For the same compound, the IC50 [2, 10] was under 0.001 µM, the pIC50 [2, 11] was over 9.00 and the IC50 ([3]; cFib assay) was over 20 µM. For the same compound, the pIC50 [4, 12] was over 9.00, the pIC50 [4, 13] was over 9.00 and the IC50 [4, 14] was under 0.001 µM. For the same compound, the inhibition at 10 µM [4, 15] was 86%, the “LPS % cell toxicity” value [5] was 2% and the pIC50 [6] was under 4.70. For the same compound, the “Quadrant (FIG. 5b)” value [7, 16] was “Q2”, the inhibition at 10 µM [7, 17] was over 50% and the inhibition at 10 µM [7, 18] was over 50%. For the same compound, the “Quadrant (FIG. 5b)” value ([7]; Table 1, screen at 10 μM) was “Q2” and the “Quadrant (FIG. 5b)” value [7, 19] was “Q2”.
In the case of `C#C[C@]1(O)CC[C@H]2[C@@H]3CCc4cc(O)ccc4[C@H]3CC[C@@]21C` [Ethinyl estradiol, reference compound], the “Fibrin % cell toxicity” value [1] was 1%, the pIC50 [2, 8] was under 4.70 and the inhibition at 10 µM [2, 9] was 37%. The IC50 [2, 10] was over 20 µM, the pIC50 [2, 11] was under 4.70 and the inhibition at 10 µM ([2]; primary microglia HTS, LPS stimulation, compounds at 10 μM) was 5%. The IC50 [3] was over 20 µM, the pIC50 [4, 12] was under 4.70 and the pIC50 [4, 13] was under 4.70. For the same compound, the IC50 [4, 14] was over 20 µM, the inhibition at 10 µM ([4]; primary microglia HTS, fibrin stimulation, compounds at 10 μM) was 9% and the inhibition at 10 µM [4, 15] was 58%. For the same compound, the pIC50 [6] was under 4.70, the “Quadrant (FIG. 5b)” value [7, 16] was “Q3” and the inhibition at 10 µM [7, 17] was over 50%. The inhibition at 10 µM [7, 18] was over 50%, the “Quadrant (FIG. 5b)” value ([7]; Table 1, screen at 10 μM) was “Q3” and the “Quadrant (FIG. 5b)” value ([7]; classification by fibrin and LPS inhibition, HTS at 10 μM) was “Q4”. For the same compound, the “Quadrant (FIG. 5b)” value [7, 19] was “Q3”.
With `CNCCC=C1c2ccccc2CCc2ccccc21` [Nortriptyline hydrochloride, reference compound] the “Fibrin % cell toxicity” value [1] was 2%, the inhibition at 10 µM ([2]; 48 h) was 114% and the pIC50 ([2]; 48 h, read-out: LPS IC50) was 5.52. For the same compound, the IC50 ([2]; read-out: LPS IC50 (uM)) was 3 µM, the IC50 [2, 20] was 3 µM and the IC50 [3] was 20 µM. It also gave a pIC50 ([4]; 48 h, read-out: Fibrin IC50) of 4.89, an inhibition at 10 µM [4] of 98% and an IC50 ([4]; read-out: Fibrin IC50 (uM)) of 13 µM. The IC50 [4, 21] was 13 µM, the “LPS % cell toxicity” value [5] was 81% and the pIC50 [6] was 5.00. The “Quadrant (FIG. 5b)” value [7] was “Q2”, the inhibition at 10 µM [7, 22] was over 50% and the inhibition at 10 µM ([7]; Microglia, read-out: Hit) was over 50%.
With `C#CCN[C@@H]1CCc2ccccc21` [Rasagiline, reference compound] the “Fibrin % cell toxicity” value [1] was 1%, the inhibition at 10 µM ([2]; 48 h) was 28% and the pIC50 ([2]; 48 h, read-out: LPS IC50) was under 4.70. The IC50 ([2]; read-out: LPS IC50 (uM)) was over 20 µM, the IC50 [2, 20] was over 20 µM and the IC50 [3] was over 20 µM. For the same compound, the pIC50 ([4]; 48 h, read-out: Fibrin IC50) was 4.70, the inhibition at 10 µM [4] was 76% and the IC50 ([4]; read-out: Fibrin IC50 (uM)) was 20 µM. The IC50 [4, 21] was 20 µM, the “LPS % cell toxicity” value [5] was 1% and the pIC50 [6] was under 4.70. For the same compound, the “Quadrant (FIG. 5b)” value [7] was “Q3”, the inhibition at 10 µM [7, 22] was over 50% and the inhibition at 10 µM ([7]; Microglia, read-out: Hit) was over 50%.
With `CCN(CC)CCNc1ccc(CO)c2sc3ccccc3c(=O)c12` [Hycanthone, reference compound] the “Fibrin % cell toxicity” value [1] was 2%, the pIC50 [2, 8] was 6.00 and the inhibition at 10 µM [2, 9] was 71%. For the same compound, the IC50 [2, 10] was 1 µM, the pIC50 ([2]; Table 7, read-out: LPS_IC50) was 6.45 and the pIC50 [2, 11] was 6.00. For the same compound, the IC50 [3] was over 20 µM, the pIC50 [4, 12] was 6.00 and the pIC50 ([4]; Table 7, read-out: fib_IC50) was 6.21. For the same compound, the pIC50 [4, 13] was 6.00, the IC50 [4, 14] was 1 µM and the inhibition at 10 µM [4, 15] was 103%. The “LPS % cell toxicity” value [5] was 2%, the pIC50 [6] was 4.96 and the “Quadrant (FIG. 5b)” value [7, 16] was “Q2”. For the same compound, the inhibition at 10 µM [7, 17] was over 50%, the inhibition at 10 µM [7, 18] was over 50% and the “Quadrant (FIG. 5b)” value ([7]; Table 1, screen at 10 μM) was “Q2”. The Activity ([7]; Table 7, fib = fibrin, LPS, tox = toxicity) was “fib/LPS” and the “Quadrant (FIG. 5b)” value [7, 19] was “Q2”.
